Laboratory results taken from patent US7265130B2, “NPY Y5 antagonist” (Shionogi & Co., Ltd., priority 1999, dated 2007).

Columns and labels:
[1] = biological target: T1, human NPY Y5 receptor (Homo sapiens, UniProt Q15761); test: cAMP production inhibitory activity in CHO cells; type: cell-based; conditions: against 50 nM NPY inhibition of forskolin stimulated cAMP, CHO cells expressing human NPY Y5 receptor
T1 construct: expressed in transfected cells
T1 sequence (Q15761 1-445): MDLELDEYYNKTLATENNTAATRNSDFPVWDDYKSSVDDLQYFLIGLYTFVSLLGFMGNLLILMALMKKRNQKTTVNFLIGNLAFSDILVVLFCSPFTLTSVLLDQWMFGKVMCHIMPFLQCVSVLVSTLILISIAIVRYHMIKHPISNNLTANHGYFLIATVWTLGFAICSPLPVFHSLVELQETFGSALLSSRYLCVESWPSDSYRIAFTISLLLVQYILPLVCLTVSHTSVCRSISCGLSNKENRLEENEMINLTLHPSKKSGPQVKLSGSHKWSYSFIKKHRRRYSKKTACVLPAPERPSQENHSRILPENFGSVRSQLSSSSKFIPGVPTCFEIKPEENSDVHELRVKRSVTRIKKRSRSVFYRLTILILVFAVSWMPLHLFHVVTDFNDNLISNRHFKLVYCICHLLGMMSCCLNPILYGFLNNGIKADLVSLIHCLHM
Description: Experiment 2 cAMP production inhibitory activity in CHO cells
After CHO cells expressing human NPY Y5 receptor were incubated in the presence of 2.5 mM isobutylmethylxanthine (SIGMA) at 37° C. for 20 min., the compound of the present invention was added and incubated for 5 min. Then, 50 nM NPY and 10 μM forskolin (SIGMA) were added to the cells and incubated for 30 min. After the reaction was terminated by adding 1N HCl, the amount of cAMP in the supernatant was measured with EIA kit (Amersham LIFE SCIENCE).

[2] = biological target: T1, human NPY Y5 receptor; test: Affinity for NPY Y5 receptor ([125I] peptide YY binding, CHO cell membranes); conditions: inhibition of specific [125I] peptide YY binding, membranes of CHO cells expressing NPY Y5 receptor
From the text: Experiment 1 Affinity for NPY Y5 Receptor
cDNA sequence encoding a human NPY Y5 receptor (WO096/16542) was cloned in the expression vector pME18S (Takebe et al. Mol. Cell. Biol. 8, 8957). The obtained expression vector was transfected into a host CHO cells by using a Lipofect AMINE reagent (Trademark, Gibco BRL Co., Ltd.) according to an instruction protocol to obtain the cells that stably express NPY Y5 receptor.
The membranes prepared from the above CHO cells expressing NPY Y5 receptor, the compound of the present invention and 30,000 cpm [^125I] peptide YY (60 pM of final concentration: Amersham) were incubated in the assay buffer (20 mM HEPES-Hanks buffer containing 0.1% bovine serum albumin, pH 7.4) at 25° C. for 2 hours, and then the mixture was filtered with a glassfilter GF/C treated with polyethyleneimine. After the glassfilter was washed with 50 mM Tris-HCl buffer (pH 7.4), the radioactivity on the filter was measured with a gamma counter. The non-specific binding was detected in the presence of 200 nM of peptide YY. The 50% inhibitory concentration of the test compound against the specific peptide YY binding (IC50 value) was calculated (Inui, A. et al. Endocrinology 131, 2090-2096 (1992)).

Compound	IC50 [1]	IC50 [2]
CC(C)(C)S(=O)(=O)NC1CCC(C(=O)Nc2ccc(C3CCCCC3)cc2)CC1 (centres unmarked) [Ia-203]	2.6 nM	0.2 nM
CCOc1cccc(NC(=O)C2CCC(NS(=O)(=O)C(C)(C)C)CC2)c1 (centres unmarked) [Compound I-160]	8.8 nM	0.61 nM
CC(C)(C)S(=O)(=O)NC1CCC(C(=O)Nc2ccc(F)c(C(F)(F)F)c2)CC1 (centres unmarked) [Ia-160]	140 nM	0.76 nM
CC(C)(C)S(=O)(=O)NC1CCC(C(=O)Nc2ccc(Nc3ccccc3)cc2)CC1 (centres unmarked) [Compound I-83]	29 nM	0.61 nM
CCCCc1ccc(NC(=O)C2CCC(CNS(=O)(=O)C(C)(C)C)CC2)cc1 (centres unmarked) [Compound I-24]	71 nM	9.6 nM
CC(C)(C)S(=O)(=O)NC1CCC(C(=O)NCCSCc2c(F)cccc2Cl)CC1 (centres unmarked) [Compound I-151]	2.6 nM	0.17 nM
CC(C)(C)S(=O)(=O)NC1CCC(C(=O)Nc2ccc(N3CCCC3=O)cc2)CC1 (centres unmarked) [Ia-183]	7.8 nM	1.9 nM
COc1cc2c(cc1NC(=O)C1CCC(NS(=O)(=O)C(C)(C)C)CC1)oc1ccccc12 (centres unmarked) [Compound I-132]	30.4 nM	2.2 nM
CC(C)(C)S(=O)(=O)NC1CCC(C(=O)Nc2ccc(OC3CCOC3)cc2)CC1 (centres unmarked) [Ia-205]	99 nM	2.4 nM
CC(C)(C)S(=O)(=O)NC1CCN(C(=O)Nc2cnc(-c3ccccc3)cn2)CC1 [Ia-70]	31 nM	1.5 nM
Cc1ccc2cc(NC(=O)C3CCC(NS(=O)(=O)C(C)(C)C)CC3)ccc2n1 (centres unmarked) [Compound I-138]	18.6 nM	1 nM
CC(C)(C)S(=O)(=O)NC1CCC(C(=O)Nc2ccc(-c3ccc(N4CCCCC4)cc3)cc2)CC1 (centres unmarked) [Compound I-65]	72 nM	1.8 nM
CC(C)(C)S(=O)(=O)NC1CCC(C(=O)Nc2ccc(-n3ccc4ccccc43)cc2)CC1 (centres unmarked) [Compound I-76]	5.5 nM	0.61 nM
CC(C)(C)S(=O)(=O)NC1CCC(C(=O)Nc2ccc(N3CCC(O)C3)cc2)CC1 (centres unmarked) [Compound I-90]	50 nM	2.8 nM
CC(C)(C)S(=O)(=O)NC1CCC(C(=O)Nc2ccc(C3(O)CCOCC3)cc2)CC1 (centres unmarked) [Ia-247]	31 nM	0.79 nM
CC(C)(C)S(=O)(=O)NC1CCC(C(=O)Nc2ccc(OCC3CCCCO3)cc2)CC1 (centres unmarked) [Ia-206]	460 nM	1.9 nM
CC(C)(C)S(=O)(=O)Nc1ccc(C(=O)Nc2ccc3c(c2)CCC3)cc1 [Ia-125]	46 nM	4.1 nM
CSc1sc(C(=O)NNC(=O)C2CCC(NS(=O)(=O)C(C)(C)C)CC2)c2c1C(O)CCC2 (centres unmarked) [Compound I-153]	29 nM	1.7 nM
CC(C)(C)S(=O)(=O)NC1CCC(C(=O)Nc2ccc(N3CCN(c4ccccc4)CC3)cc2)CC1 (centres unmarked) [Compound I-53]	21 nM	4.1 nM
CC(C)S(=O)(=O)NC1CCC(C(=O)Nc2ccc3c(c2)C(=O)N(C)C3=O)CC1 (centres unmarked) [Ia-87]	61 nM	0.49 nM
CSc1ccc(NC(=O)C2CCC(NS(=O)(=O)C(C)(C)C)CC2)cc1 (centres unmarked) [Compound I-128]	10.2 nM	1.3 nM
CC(C)S(=O)(=O)NC1CCC(C(=O)Nc2cccc(OCC3CC3)c2)CC1 (centres unmarked) [Ia-197]	2.5 nM	0.44 nM
CC(C)(C)S(=O)(=O)Nc1ccc(C(=O)Nc2ccc3ccsc3c2)cc1 [Ia-131]	17 nM	1.3 nM
CC(C)S(=O)(=O)NC1CCC(C(=O)Nc2ccc(-c3ncco3)cc2)CC1 (centres unmarked) [Ia-204]	6.3 nM	1 nM
CCCCc1ccc(C(=O)Nc2ccc(NS(=O)(=O)C(C)C)cc2)cc1 [Compound I-2]	72 nM	7.5 nM
C[C@@H]1CN(c2ccc(NC(=O)C3CCC(NS(=O)(=O)C(C)(C)C)CC3)cc2Cl)C[C@H](C)O1 (some centres unmarked) [Ia-25]	18 nM	1.1 nM
CCCCc1ccc(NC(=O)CCCCNS(=O)(=O)CC(C)C)cc1 [Compound I-110]	13.6 nM	4.3 nM
C[C@@H]1CN(S(=O)(=O)c2ccc(NC(=O)C3CCC(NS(=O)(=O)C(C)(C)C)CC3)cc2)C[C@H](C)O1 (some centres unmarked) [Ia-44]	27 nM	4.8 nM

Compound	IC50 [1]	IC50 [2]
CC(C)(C)S(=O)(=O)NC1CCC(C(=O)Nc2ccc(Cc3ccncc3)cc2)CC1 (centres unmarked) [Compound I-206]	54 nM	5.9 nM
CC(C)S(=O)(=O)NCCCCC(=O)Nc1ccc(N2CCC(O)(c3ccc(Cl)cc3)CC2)cc1 [Ia-86]	11 nM	0.73 nM
CC(C)(C)S(=O)(=O)NC1CCC(C(=O)Nc2ccc(-c3ccno3)cc2)CC1 (centres unmarked) [Ia-179]	19 nM	0.89 nM
CC(C)(C)S(=O)(=O)NC1CCC(C(=O)Nc2cccnc2Oc2ccc(F)cc2F)CC1 (centres unmarked) [Compound I-144]	52 nM	3.4 nM
CC(C)(C)S(=O)(=O)Nc1ccc(C(=O)Nc2ccc(-c3ccco3)cc2)cc1 [Ia-210]	99 nM	2.8 nM
COc1ccc(CCNC(=O)C2CCC(NS(=O)(=O)C(C)(C)C)CC2)cc1OC (centres unmarked) [Compound I-147]	63 nM	7.1 nM
CC(C)(C)S(=O)(=O)NC1CCC(C(=O)Nc2cccc3cc4ccccc4cc23)CC1 (centres unmarked) [Compound I-129]	174 nM	2.1 nM
CC(O)(c1ccccc1)c1ccc(NC(=O)C2CCC(NS(=O)(=O)C(C)(C)C)CC2)cc1 (centres unmarked) [Ia-57]	31 nM	0.93 nM
Cc1ccc2nc(-c3ccc(NC(=O)C4CCC(NS(=O)(=O)C(C)(C)C)CC4)cc3)sc2c1 (centres unmarked) [Ia-46]	8.3 nM	0.87 nM
CCCCc1ccc(NC(=O)C2CCC(NS(=O)(=O)C(C)(C)C)CC2)cc1 (centres unmarked) [Compound I-25]	2.6 nM	0.6 nM
CC(C)(C)S(=O)(=O)NC1CCC(C(=O)Nc2nc(-c3cccc4ccccc34)cs2)CC1 (centres unmarked) [Compound I-142]	28 nM	0.49 nM
CC(C)(C)S(=O)(=O)Nc1ccc(NC(=O)C2CCC(NS(=O)(=O)C(C)(C)C)CC2)cc1 (centres unmarked) [Ia-58]	110 nM	2.5 nM
CCCCOc1ccc(NC(=O)C2CCC(NS(=O)(=O)C(C)(C)C)CC2)cn1 (centres unmarked) [Compound I-167]	39 nM	0.72 nM
CC(C)(C)S(=O)(=O)NC1CCC(C(=O)Nc2ccc(N3CCCCC3=O)cc2)CC1 (centres unmarked) [Ia-173]	140 nM	6.9 nM
CC(=O)c1cccc(NC(=O)C2CCC(NS(=O)(=O)C(C)(C)C)CC2)c1 (centres unmarked) [Compound I-197]	38 nM	6.7 nM
CC(C)S(=O)(=O)NCCCCC(=O)Nc1ccc2c(c1)C(=O)N(c1ccccc1)C2=O [Ia-226]	21 nM	0.37 nM
CC(C)(C)S(=O)(=O)NC1CCC(C(=O)Nc2cccc(OC(F)(F)C(F)F)c2)CC1 (centres unmarked) [Compound I-126]	13.2 nM	0.6 nM
CC(C)(C)S(=O)(=O)NC1CCC(C(=O)Nc2ccc(-c3ccco3)cc2)CC1 (centres unmarked) [Ia-177]	7.5 nM	0.49 nM
CC(C)NC(=O)c1cccc(NC(=O)c2ccc(NS(=O)(=O)C(C)(C)C)cc2)c1 [Ia-132]	76 nM	2.8 nM
CCN(CC)c1ccc(NC(=O)C2CCC(NS(=O)(=O)C(C)(C)C)CC2)cc1 (centres unmarked) [Compound I-44]	13.4 nM	1 nM
CC(C)(C)S(=O)(=O)NC1CCC(C(=O)Nc2ccc(-c3ccc(C#N)cc3)cc2)CC1 (centres unmarked) [Compound I-137]	68.2 nM	1.4 nM
CC(C)(C)S(=O)(=O)NCCCCC(=O)Nc1ccc2oc(=O)ccc2c1 [Ia-78]	150 nM	2 nM
CC(C)(C)S(=O)(=O)Nc1ccc(C(=O)Nc2ccc3c(c2)OCCO3)cc1 [Ia-127]	160 nM	6.1 nM
CC(C)NC(=O)c1ccc(NC(=O)C2CCC(NS(=O)(=O)C(C)C)CC2)cc1 (centres unmarked) [Ia-193]	43 nM	1.4 nM
Cc1ccc(NC(=O)C2CCC(NS(=O)(=O)C(C)(C)C)CC2)cc1F (centres unmarked) [Ia-161]	18 nM	1.9 nM
CC(C)(C)S(=O)(=O)NC1CCN(C(=O)Nc2ccc(C3CCCCC3)cc2)CC1 [Ia-221]	1.5 nM	0.47 nM
CC(C)(C)S(=O)(=O)NC1CCC(C(=O)Nc2ccc(Oc3ccccc3)cc2)CC1 (centres unmarked) [Compound I-50]	8.4 nM	0.3 nM
